In paper PMC9230201, “Sustained Consumption of a Decaffeinated Green Coffee Nutraceutical Has Limited Effects on Phenolic Metabolism and Bioavailability in Overweight/Obese Subjects” (Nutrients, 2022):
Where “and” joins values, the source holds several entries; their conditions need not be identical. Equal values may be shown once.

Assays:
[1] = Urinary excretion of phenolic metabolites after intake of the GCPE nutraceutical; conditions: for Cumulative urinary excretion, Total 0–24 h / Urinary excretion: urine; for Cumulative urinary excretion, Total 0–24 h: mean ± SEM, n = 9
Description: Participants attended the Human Nutrition Unit (HNU) at the Institute of Food Science, Technology and Nutrition (ICTAN-CSIC) on two consecutive days at the beginning of the intervention (week 0) and also on two consecutive days at the end of the study, after consuming daily two doses of the GCPE nutraceutical, providing 600 mg/d phenols, during two months (week 8). […] A licensed health care professional placed an intravenous catheter in the subjects′ nondominant arm and collected a fasting blood sample (baseline, 0 h). Then, subjects drank the soluble GCPE nutraceutical dissolved in 200 mL of water. […] On the sampling days, volunteers remained at the HNU, where a (poly)phenol-free diet was provided. Half an hour after consuming the nutraceutical, volunteers ate a breakfast consisting of ham, cheese, white bread, and a yogurt. Lunch (paella, bread, and yogurt) and an afternoon snack (muffin and yogurt) were eaten 5 and 9 h, respectively, after consuming the nutraceutical. Water and isotonic beverages were freely available. […] The same protocol was followed during visits at the end of the 8-week intervention. On each occasion, two days before each visit to the HNU, subjects consumed a low (poly)phenol diet free of foods containing hydroxycinnamates such as coffee, herbal teas, red wine, artichokes, whole grain cereals, vegetables, fruits and fruit juices, and dried fruits. Only banana, watermelon, cantaloupes, and potatoes were allowed.
(§1) Blood samples were immediately centrifuged (10 min, 3000 rpm, 4 °C) to obtain plasma. […] All biological samples were stored at −80 °C until analysis.
To extract plasma metabolites, 10 µL of 50% (v/v) aqueous formic acid, and 900 µL cold acetonitrile containing 50 µL of 10% (w/v) ascorbic acid were added to 400 µL defrosted plasma. Samples were vortexed and centrifuged (14,000 rpm, 10 min, 4 °C), repeating the extraction and combining the two supernatants, which were reduced to dryness under nitrogen [13]. Dried samples were resuspended in 150 µL of 0.1% aqueous formic acid (containing 10% acetonitrile acidified with 0.1% formic acid), centrifuged (15 min, 14,000 rpm, 4 °C), and the supernatant collected. Urine samples were diluted 1:1 with Milli-Q water and centrifuged (14,000 rpm, 20 min, 4 °C) prior to analysis. Phosphate-buffered saline (3 mL) was added to a representative 300 mg sample of thawed feces, homogenized in an ultrasound bath during 10 min, centrifuged (14,000 rpm, 20 min, 4 °C), and the supernatants collected.
Mobile phase A was 0.1% formic acid in Milli-Q water, and mobile phase B was acetonitrile containing 0.1% formic acid at a 0.3 mL/min flow rate. […] Metabolites were identified based on their retention time using authentic standards when possible. […] Urine concentration of excreted metabolites was normalized to the total volume excreted in each studied interval.
Plasma (30 µL), urine (5 µL) and fecal extracts (5 µL) were filtered through 0.45 µm
cellulose-acetate membrane filters and injected into an Agilent 1200 series LC system
ESI-Jet Stream Technology (Agilent Technologies). A reverse-phase Ascentis Express
C18 (15 cm x 3 mm, 2.7 µm) column (Sigma-Aldrich Quimica, Madrid), preceded by a
phase A was 0.1% formic acid in Milli-Q water, and mobile phase B was acetonitrile
containing 0.1% formic acid at a 0.3 mL/min flow rate. The gradient started with 10% B
at 0 min, 30% B at 10 min, 40% B at 15 min, reaching 50% B at 20 min. The starting
gradient was then re-established in 2 min and maintained for 8 min to re-equilibrate the

[2] = Plasma pharmacokinetics of phenolic metabolites after intake of the GCPE nutraceutical (LC-MS-QToF); conditions: for Cmax: mean ± SEM, n = 9; for AUC(0-t) / Tmax: 300 mg hydroxycinnamic acids; for AUC(0-t): AUC0–24h; for Tmax: Tmax (h) or Range
Description: Participants attended the Human Nutrition Unit (HNU) at the Institute of Food Science, Technology and Nutrition (ICTAN-CSIC) on two consecutive days at the beginning of the intervention (week 0) and also on two consecutive days at the end of the study, after consuming daily two doses of the GCPE nutraceutical, providing 600 mg/d phenols, during two months (week 8). On each occasion, on the first visit day (Figure 1), subjects arrived at the HNU after an overnight (12 h) fast and provided a urine sample. A licensed health care professional placed an intravenous catheter in the subjects′ nondominant arm and collected a fasting blood sample (baseline, 0 h). Then, subjects drank the soluble GCPE nutraceutical dissolved in 200 mL of water. Subsequently, blood samples were collected in EDTA-coated tubes at 0.5, 1, 1.5, 2, 3, 4, 6, 8, 10, and 11 h. On the sampling days, volunteers remained at the HNU, where a (poly)phenol-free diet was provided. Half an hour after consuming the nutraceutical, volunteers ate a breakfast consisting of ham, cheese, white bread, and a yogurt. Lunch (paella, bread, and yogurt) and an afternoon snack (muffin and yogurt) were eaten 5 and 9 h, respectively, after consuming the nutraceutical. Water and isotonic beverages were freely available. Volunteers were instructed to eat a (poly)phenol-free dinner that night and to attend the HNU on the next day after a 12 h fast. Then, a final blood sample was obtained from the antecubital vein 24 h after consuming the nutraceutical. The same protocol was followed during visits at the end of the 8-week intervention. On each occasion, two days before each visit to the HNU, subjects consumed a low (poly)phenol diet free of foods containing hydroxycinnamates such as coffee, herbal teas, red wine, artichokes, whole grain cereals, vegetables, fruits and fruit juices, and dried fruits. Only banana, watermelon, cantaloupes, and potatoes were allowed.
as §1
To extract plasma metabolites, 10 µL of 50% (v/v) aqueous formic acid, and 900 µL cold acetonitrile containing 50 µL of 10% (w/v) ascorbic acid were added to 400 µL defrosted plasma. Samples were vortexed and centrifuged (14,000 rpm, 10 min, 4 °C), repeating the extraction and combining the two supernatants, which were reduced to dryness under nitrogen [13]. Dried samples were resuspended in 150 µL of 0.1% aqueous formic acid (containing 10% acetonitrile acidified with 0.1% formic acid), centrifuged (15 min, 14,000 rpm, 4 °C), and the supernatant collected.
A reverse-phase Ascentis Express C18 (15 cm × 3 mm, 2.7 µm) column (Sigma-Aldrich Quimica, Madrid, Spain), preceded by a Supelco 55215-U guard column (3 mm × 5 mm, 2.7 µm), was used for separation. Mobile phase A was 0.1% formic acid in Milli-Q water, and mobile phase B was acetonitrile containing 0.1% formic acid at a 0.3 mL/min flow rate. […] Metabolites were identified based on their retention time using authentic standards when possible.

[3] = week 0, GCPE nutraceutical with 300 mg hydroxycinnamic acids
[4] = week 0, first peak where biphasic
[5] = week 8, GCPE nutraceutical with 300 mg hydroxycinnamic acids
[6] = week 8, first peak where biphasic

| Compound | Cumulative urinary excretion, Total 0–24 h ([1]; week 0) [µmol] | Cumulative urinary excretion, Total 0–24 h ([1]; week 8) [µmol] | Amount excreted in urine, 0- 3 h ([1]; week 0, interval 0–3 h) [µmol] | Amount excreted in urine, 3-6 h ([1]; week 0, interval 3–6 h) [µmol] | Amount excreted in urine, 6-9 h ([1]; week 0, interval 6–9 h) [µmol] | Amount excreted in urine, 9-11 h ([1]; week 0, interval 9–11 h) [µmol] | Amount excreted in urine, 11-24 h ([1]; week 0, interval 11–24 h) | Amount excreted in urine, 0- 3 h ([1]; week 8, interval 0–3 h) | Amount excreted in urine, 3-6 h ([1]; week 8, interval 3–6 h) | Amount excreted in urine, 6-9 h ([1]; week 8, interval 6–9 h) [µmol] | Amount excreted in urine, 9-11 h ([1]; week 8, interval 9–11 h) [µmol] | Amount excreted in urine, 11-24 h ([1]; week 8, interval 11–24 h) | AUC0–24h ([2]; week 0) [µM/min] | Cmax [2, 3] [nM] | Tmax (h) or Range [2, 4] [h] | AUC0–24h ([2]; week 8) [µM/min] | Cmax [2, 5] [nM] | Tmax (h) or Range [2, 6] [h] | other results |
| --- | --- | --- | --- | --- | --- | --- | --- | --- | --- | --- | --- | --- | --- | --- | --- | --- | --- | --- | --- |
| O=C(O)CNC(=O)c1cccc(O)c1 [3′-Hydroxyhippuric acid] | 32 ± 5 | 46 ± 8 | 3 ± 2 | 1.1 ± 0.2 | 4 ± 1 | 5 ± 1 | 11 ± 2 µmol | 4 ± 1 µmol | 2.6 ± 0.7 µmol | 6 ± 2 | 5 ± 1 | 9 ± 2 µmol | 10 ± 3 | 1100 ± 300 | 10.0 ± 0.4 | 13 ± 3 | 1300 ± 200 | 9.2 ± 0.5 | Cumulative urinary excretion, Total 0–24 h ([1]; week 0, listed as 3′-hydroxyhippuric acid): 32 µmol; Cumulative urinary excretion, Total 0–24 h ([1]; week 8, listed as 3′-hydroxyhippuric acid): 46 µmol; Amount excreted in urine, TOTAL ([1]; week 0, Table S5 total): 32 ± 5 µmol; Amount excreted in urine, 0 h ([1]; week 8, 0 h (before intake on sampling day)): 18 ± 5 µmol; Amount excreted in urine, TOTAL ([1]; week 8, Table S6 total): 46 ± 8 µmol |
| O=C(O)CNC(=O)c1ccc(O)cc1 [4′-Hydroxyhippuric acid] | 14 ± 2 | 14 ± 2 | 1.3 ± 0.3 | 0.7 ± 0.1 | 1 ± 0.3 | 0.8 ± 0.2 | 3.8 ± 0.9 µmol | 1.5 ± 0.3 µmol | 0.6 ± 0.1 µmol | 1.2 ± 0.2 | 1.1 ± 0.3 | 2.8 ± 0.6 µmol | 1.2 ± 0.2 | 80 ± 10 | 12 ± 3 | 1.3 ± 0.2 | 90 ± 10 | 8 ± 2 | Amount excreted in urine, TOTAL ([1]; week 0, Table S5 total): 14 ± 2 µmol; Amount excreted in urine, TOTAL ([1]; week 8, Table S6 total): 14 ± 2 µmol |
| O=C(O)Cc1ccc(O)cc1 [4′-Hydroxyphenylacetic acid] | – | – | – | – | – | – | – | – | – | – | – | – | 2 ± 1 | 2000 ± 1000 | 2 ± 2 | 36 ± 23 | 7000 ± 3000 | 0.6 ± 0.1 | – |
| O=C(O)C=Cc1ccc(OC2OC(C(=O)O)C(O)C(O)C2O)cc1 (stereo not drawn) [CoA-4′-glucuronide, Cinnamic acid-4′-glucuronide] | – | – | – | – | – | – | – | – | – | – | – | – | 0.72 ± 0.08 | 39 ± 2 | 1.4 ± 0.3 | 0.71 ± 0.07 | 38 ± 2 | 2.1 ± 0.2 | Tmax, second peak ([2]; week 0, biphasic profile): 7.0 ± 0.9 h; Tmax, second peak ([2]; week 8, biphasic profile): 9 ± 2 h |
| O=C(O)/C=C/c1ccc(OS(=O)(=O)O)cc1 [CoA-4′-sulfate, Cinnamic acid-4′-sulfate] | – | – | – | – | – | – | – | – | – | – | – | – | 0.2 ± 0.2 | 20 ± 20 | 1.7 ± 0.9 | 0.4 ± 0.2 | 30 ± 10 | – | Tmax, second peak ([2]; week 0, biphasic profile): 6 ± 3 h; Tmax, second peak ([2]; week 8, biphasic profile): 11 ± 3 h |
| O=C(O)CCc1ccc(OS(=O)(=O)O)c(O)c1 [DHCA-4′-sulfate, 3-(3′-Hydroxyphenyl)propanoic acid-4′-sulfate] | 8 ± 2 | 10 ± 2 | 0.4 ± 0.1 | 0.2 ± 0.04 | 0.5 ± 0.2 | 0.5 ± 0.2 | 2.6 ± 0.8 µmol | 0.6 ± 0.2 µmol | 0.2 ± 0.04 µmol | 0.5 ± 0.1 | 0.6 ± 0.2 | 1.7 ± 0.5 µmol | 2.3 ± 0.5 | 340 ± 90 | 7.9 ± 0.5 | 2.1 ± 0.4 | 330 ± 70 | 8.4 ± 0.6 | Urinary excretion ([1]; week 0): 8 µmol/24 h; Urinary excretion ([1]; week 8): 10 µmol/24 h |
| COc1cc(CCC(=O)O)ccc1O[C@@H]1O[C@H](C(=O)O)[C@@H](O)[C@H](O)[C@H]1O [DHFA-4′-glucuronide, 3-(3′-Methoxyphenyl)propanoic acid-4′-glucuronide] | 5 ± 1 | 7 ± 1 | 0.15 ± 0.05 | 0.16 ± 0.05 | 1 ± 0.4 | 0.8 ± 0.1 | 1.2 ± 0.2 µmol | 0.21 ± 0.06 µmol | 0.34 ± 0.09 µmol | 1 ± 0.2 | 0.8 ± 0.2 | 1 ± 0.3 µmol | 1.1 ± 0.3 | 130 ± 30 | 8.7 ± 0.6 | 0.8 ± 0.1 | 120 ± 20 | 8.7 ± 0.6 | Urinary excretion ([1]; week 0): 5 µmol/24 h; Urinary excretion ([1]; week 8): 7 µmol/24 h |
| COc1cc(CCC(=O)O)ccc1OS(=O)(=O)O [DHFA-4′-sulfate, 3-(3′-Methoxyphenyl)propanoic acid-4′-sulfate] | 10 ± 2 | 9 ± 2 | 0.5 ± 0.1 | 0.5 ± 0.1 | 3.4 ± 1.2 | 2.1 ± 0.5 | 3.5 ± 0.8 µmol | 0.6 ± 0.1 µmol | 0.8 ± 0.2 µmol | 2 ± 1 | 3 ± 1 | 2.6 ± 0.8 µmol | 1.5 ± 0.7 | 190 ± 80 | 8.1 ± 0.4 | 1.1 ± 0.3 | 170 ± 50 | 8.4 ± 0.6 | – |
| COc1ccc(CCC(=O)O)cc1O [DHiFA, 3-(3′-Hydroxy-4′-methoxyphenyl) propanoic acid] | 3.7 ± 0.4 | 3.2 ± 0.2 | 0.26 ± 0.04 | 0.25 ± 0.08 | 1.2 ± 0.3 | 0.8 ± 0.2 | 1.2 ± 0.09 µmol | 0.32 ± 0.07 µmol | 0.38 ± 0.08 µmol | 1 ± 0.2 | 0.7 ± 0.2 | 1 ± 0.2 µmol | – | – | – | – | – | – | AUC(0-t) ([2]; human, oral, week 0): 0.5 ± 0.2 µM·h; AUC(0-t) ([2]; human, oral, week 8): 0.6 ± 0.2 µM·h; Tmax ([2]; human, oral, week 0, first peak where biphasic): 7 ± 1 h; Tmax ([2]; human, oral, week 8, first peak where biphasic): 7 ± 1 h; Cmax ([2]; human, oral, 300 mg, Cmax, week 0, GCPE nutraceutical with 300 mg hydroxycinnamic acids): 70 ± 20 nM; Cmax ([2]; human, oral, 300 mg, Cmax, week 8, GCPE nutraceutical with 300 mg hydroxycinnamic acids): 70 ± 20 nM |
| COc1ccc(CCC(=O)O)cc1O[C@@H]1O[C@H](C(=O)O)[C@@H](O)[C@H](O)[C@H]1O [DHiFA-3′-glucuronide, 3-(4′-Methoxyphenyl)propanoic acid-3′-glucuronide] | 2.9 ± 0.5 | 3.1 ± 0.7 | 0.12 ± 0.04 | 0.16 ± 0.06 | 1.1 ± 0.4 | 0.7 ± 0.2 | 0.8 ± 0.2 µmol | 0.3 ± 0.1 µmol | 0.28 ± 0.07 µmol | 1.1 ± 0.2 | 0.8 ± 0.4 | 0.6 ± 0.3 µmol | 0.6 ± 0.4 | 60 ± 20 | 9.0 ± 0.6 | 0.7 ± 0.4 | 70 ± 30 | 8.1 ± 0.8 | – |
| COc1ccc(CCC(=O)O)cc1OS(=O)(=O)O [DHiFA-3′-sulfate, 3-(4′-Methoxyphenyl)propanoic acid-3′-sulfate] | 3 ± 1 | 2.6 ± 0.8 | 0.18 ± 0.06 | 0.1 ± 0.04 | 0.4 ± 0.1 | 0.2 ± 0.1 | 1.9 ± 0.8 µmol | 0.14 ± 0.04 µmol | 0.09 ± 0.03 µmol | 0.24 ± 0.09 | 0.11 ± 0.03 | 2 ± 0.7 µmol | 0.3 ± 0.1 | 40 ± 10 | 7 ± 1 | 0.8 ± 0.5 | 110 ± 60 | 11.6 ± 3.2 | – |
| Coumaroylquinic acid | 0.14 ± 0.03 | 0.10 ± 0.02 | 0.03 ± 0.01 | 0.015 ± 0.003 | 0.017 ± 0.006 | 0.015 ± 0.004 | 0.06 ± 0.02 µmol | 0.009 ± 0.003 µmol | – | 0.014 ± 0.002 | 0.012 ± 0.004 | 0.06 ± 0.02 µmol | – | – | – | – | – | – | Cumulative urinary excretion, Total 0–24 h ([1]; week 0, listed as coumaroylquinic acid): 0.14 µmol; Cumulative urinary excretion, Total 0–24 h ([1]; week 8, listed as coumaroylquinic acid): 0.10 µmol |
| Dihydrocoumaroylquinic acid | – | – | – | – | – | – | 0.12 µmol and 0.14 µmol | 0.03 µmol and 0.017 µmol | 0.009 µmol and 0.01 µmol | – | – | 0.09 µmol and 0.12 µmol | – | – | – | – | – | – | Urinary excretion ([1]; week 0): 0.22 µmol/24 h; Urinary excretion ([1]; week 8): 0.17 µmol/24 h |
